Test system: T1, tubulin
T1 construct: gene TUBB2B
Assay: turbidimetric tubulin polymerization assay ([…] nm)
Format: biochemical
Settings: tubulin 10 µM

Compound | IC50 [µM]
COc1ccc(OC)c(/C=C/C(=O)c2ccc(OC)cc2OC)c1 [compound 1, hit 1] | 3.7 ± 0.5
